Our source for the IC50 values is article PMC6407917, “Identification of GSK3186899/DDD853651 as a Preclinical Development Candidate for the Treatment of Visceral Leishmaniasis” (Journal of Medicinal Chemistry, 2018).

Where only a bound is given, the exact number is not on record here.

The target of one data set is T1, hERG (Homo sapiens, UniProt Q12809).
T1 construct: gene KCNH2; in vitro hERG assay, standard protocol
Description: in vitro hERG assay, standard protocol. The data set is classed as cell-based. As to conditions: read-out: 1. The source says:
in vitro hERG assay, standard protocol on hERG
(In general: Block of hERG is tested as a sign of cardiac risk.)

The target in another data set is CYP3A4 (Homo sapiens, UniProt P08684). Briefly: midazolam marker-substrate inhibition assay, LC-MS/MS. The data set is classed as biochemical. The source says:
midazolam marker-substrate inhibition assay, LC-MS/MS on CYP3A4

The next data set deals with AAK1 (Homo sapiens, UniProt Q2M2I8). Description: biochemical. Also noted: species or system HEK293/K-562/placenta mixed human extract; Kinobeads chemoproteomic competition binding, quantified by TMT LC-MS/MS, dose response up to 20 uM.
Another data set has as its target BRAF (Homo sapiens, UniProt P15056). Briefly: biochemical. Also noted: species or system HEK293/K-562/placenta mixed human extract; Kinobeads chemoproteomic competition binding, quantified by TMT LC-MS/MS, dose response up to 20 uM.
The target in the next data set is CAMK2B (Homo sapiens, UniProt Q13554). Briefly: biochemical. On the set-up: species or system HEK293/K-562/placenta mixed human extract; Kinobeads chemoproteomic competition binding, quantified by TMT LC-MS/MS, dose response up to 20 uM.
Another data set has as its target CDC42BPG (Homo sapiens, UniProt Q6DT37). Description: biochemical. Also noted: species or system HEK293/K-562/placenta mixed human extract; Kinobeads chemoproteomic competition binding, quantified by TMT LC-MS/MS, dose response up to 20 uM.
A further data set has as its target CSK (Homo sapiens, UniProt P41240). Description: biochemical. Also noted: species or system HEK293/K-562/placenta mixed human extract; Kinobeads chemoproteomic competition binding, quantified by TMT LC-MS/MS, dose response up to 20 uM.
Another data set has as its target CSNK1A1 (Homo sapiens, UniProt P48729). Briefly: biochemical. On the set-up: species or system HEK293/K-562/placenta mixed human extract; Kinobeads chemoproteomic competition binding, quantified by TMT LC-MS/MS, dose response up to 20 uM.
The next data set concerns the target CSNK2B (Homo sapiens, UniProt P67870). Briefly: biochemical. Also noted: species or system HEK293/K-562/placenta mixed human extract; Kinobeads chemoproteomic competition binding, quantified by TMT LC-MS/MS, dose response up to 20 uM.
The next data set deals with IRAK1 (Homo sapiens, UniProt P51617). Description: biochemical. On the set-up: species or system HEK293/K-562/placenta mixed human extract; Kinobeads chemoproteomic competition binding, quantified by TMT LC-MS/MS, dose response up to 20 uM.
Another data set deals with MAST3 (Homo sapiens, UniProt O60307). Description: biochemical. On the set-up: species or system HEK293/K-562/placenta mixed human extract; Kinobeads chemoproteomic competition binding, quantified by TMT LC-MS/MS, dose response up to 20 uM.
Chain of MAST3 (O60307 whole entry): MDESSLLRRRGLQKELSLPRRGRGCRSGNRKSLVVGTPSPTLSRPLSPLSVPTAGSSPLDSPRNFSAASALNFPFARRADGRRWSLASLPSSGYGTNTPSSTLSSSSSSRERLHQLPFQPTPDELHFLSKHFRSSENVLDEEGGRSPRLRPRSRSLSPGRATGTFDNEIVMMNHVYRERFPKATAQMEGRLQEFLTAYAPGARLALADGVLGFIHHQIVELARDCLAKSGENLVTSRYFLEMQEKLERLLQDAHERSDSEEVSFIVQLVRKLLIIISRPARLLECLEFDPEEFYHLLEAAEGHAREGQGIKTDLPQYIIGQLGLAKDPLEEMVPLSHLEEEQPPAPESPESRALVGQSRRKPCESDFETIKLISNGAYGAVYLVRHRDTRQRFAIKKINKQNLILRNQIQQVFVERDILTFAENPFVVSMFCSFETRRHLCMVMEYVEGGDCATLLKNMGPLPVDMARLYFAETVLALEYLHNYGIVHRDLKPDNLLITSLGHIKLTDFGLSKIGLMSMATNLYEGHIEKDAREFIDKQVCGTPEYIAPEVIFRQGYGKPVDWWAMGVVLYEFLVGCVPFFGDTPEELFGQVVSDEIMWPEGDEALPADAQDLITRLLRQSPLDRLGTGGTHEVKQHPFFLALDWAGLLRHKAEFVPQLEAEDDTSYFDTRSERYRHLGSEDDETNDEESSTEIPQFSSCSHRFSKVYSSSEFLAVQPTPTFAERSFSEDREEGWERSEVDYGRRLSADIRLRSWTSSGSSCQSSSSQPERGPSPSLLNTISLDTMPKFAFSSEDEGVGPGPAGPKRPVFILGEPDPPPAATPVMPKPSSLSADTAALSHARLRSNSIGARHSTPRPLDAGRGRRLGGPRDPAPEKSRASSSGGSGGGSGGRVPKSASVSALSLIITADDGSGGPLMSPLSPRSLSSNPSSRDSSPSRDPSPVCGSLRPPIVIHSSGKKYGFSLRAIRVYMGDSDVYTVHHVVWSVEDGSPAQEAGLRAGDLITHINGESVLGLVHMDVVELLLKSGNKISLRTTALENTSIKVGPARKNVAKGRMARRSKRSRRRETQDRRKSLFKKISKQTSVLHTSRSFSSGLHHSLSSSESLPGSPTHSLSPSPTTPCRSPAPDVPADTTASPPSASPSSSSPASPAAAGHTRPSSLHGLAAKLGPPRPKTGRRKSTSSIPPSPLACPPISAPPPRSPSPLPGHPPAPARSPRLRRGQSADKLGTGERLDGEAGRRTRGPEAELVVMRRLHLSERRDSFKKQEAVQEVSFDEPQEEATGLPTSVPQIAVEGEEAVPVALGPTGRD
Another data set concerns the target MASTL (Homo sapiens, UniProt Q96GX5). Description: biochemical. Also noted: species or system HEK293/K-562/placenta mixed human extract; Kinobeads chemoproteomic competition binding, quantified by TMT LC-MS/MS, dose response up to 20 uM.
The target of the next data set is MYLK3 (Homo sapiens, UniProt Q32MK0). Description: biochemical. On the set-up: species or system HEK293/K-562/placenta mixed human extract; Kinobeads chemoproteomic competition binding, quantified by TMT LC-MS/MS, dose response up to 20 uM.
In a further data set the target is NEK7 (Homo sapiens, UniProt Q8TDX7). Description: biochemical. Also noted: species or system HEK293/K-562/placenta mixed human extract; Kinobeads chemoproteomic competition binding, quantified by TMT LC-MS/MS, dose response up to 20 uM.
The target of the next data set is PDIK1L (Homo sapiens, UniProt Q8N165). Briefly: biochemical. Also noted: species or system HEK293/K-562/placenta mixed human extract; Kinobeads chemoproteomic competition binding, quantified by TMT LC-MS/MS, dose response up to 20 uM.
The target in a further data set is PKN2 (Homo sapiens, UniProt Q16513). Briefly: biochemical. On the set-up: species or system HEK293/K-562/placenta mixed human extract; Kinobeads chemoproteomic competition binding, quantified by TMT LC-MS/MS, dose response up to 20 uM.
Chain of PKN2 (Q16513 whole entry): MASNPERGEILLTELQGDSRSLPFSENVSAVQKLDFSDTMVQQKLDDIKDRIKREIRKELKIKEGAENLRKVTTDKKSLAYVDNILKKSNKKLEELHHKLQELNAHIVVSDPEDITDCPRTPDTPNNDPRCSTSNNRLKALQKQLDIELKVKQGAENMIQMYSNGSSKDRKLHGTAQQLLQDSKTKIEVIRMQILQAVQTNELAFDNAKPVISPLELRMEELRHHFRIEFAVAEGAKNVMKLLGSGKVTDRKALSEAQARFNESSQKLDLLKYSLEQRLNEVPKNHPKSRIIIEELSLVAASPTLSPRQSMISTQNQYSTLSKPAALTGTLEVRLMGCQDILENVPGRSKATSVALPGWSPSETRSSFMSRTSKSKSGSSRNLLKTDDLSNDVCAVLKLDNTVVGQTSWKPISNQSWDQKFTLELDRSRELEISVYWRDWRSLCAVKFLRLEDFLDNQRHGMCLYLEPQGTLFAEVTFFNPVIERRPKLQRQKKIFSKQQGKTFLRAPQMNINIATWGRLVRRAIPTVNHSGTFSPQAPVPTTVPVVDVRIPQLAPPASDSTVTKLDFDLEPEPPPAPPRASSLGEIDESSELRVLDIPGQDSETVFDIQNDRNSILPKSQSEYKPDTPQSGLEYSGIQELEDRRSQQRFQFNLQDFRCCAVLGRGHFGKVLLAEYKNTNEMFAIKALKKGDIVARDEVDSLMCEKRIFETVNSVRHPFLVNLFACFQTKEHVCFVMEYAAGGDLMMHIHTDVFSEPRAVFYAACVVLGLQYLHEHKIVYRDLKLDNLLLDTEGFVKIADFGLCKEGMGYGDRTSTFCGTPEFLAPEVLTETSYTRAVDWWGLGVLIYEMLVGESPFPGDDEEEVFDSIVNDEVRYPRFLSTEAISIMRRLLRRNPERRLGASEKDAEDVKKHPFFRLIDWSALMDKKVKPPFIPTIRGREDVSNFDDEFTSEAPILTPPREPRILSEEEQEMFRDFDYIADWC
The next data set concerns the target PRKAA1 (Homo sapiens, UniProt Q13131). Description: biochemical. Also noted: species or system HEK293/K-562/placenta mixed human extract; Kinobeads chemoproteomic competition binding, quantified by TMT LC-MS/MS, dose response up to 20 uM.
The target in a further data set is PRKCZ (Homo sapiens, UniProt Q05513). Description: biochemical. Also noted: species or system HEK293/K-562/placenta mixed human extract; Kinobeads chemoproteomic competition binding, quantified by TMT LC-MS/MS, dose response up to 20 uM.
The next data set deals with PRKD2 (Homo sapiens, UniProt Q9BZL6). Briefly: biochemical. Also noted: species or system HEK293/K-562/placenta mixed human extract; Kinobeads chemoproteomic competition binding, quantified by TMT LC-MS/MS, dose response up to 20 uM.
Chain of PRKD2 (Q9BZL6 whole entry): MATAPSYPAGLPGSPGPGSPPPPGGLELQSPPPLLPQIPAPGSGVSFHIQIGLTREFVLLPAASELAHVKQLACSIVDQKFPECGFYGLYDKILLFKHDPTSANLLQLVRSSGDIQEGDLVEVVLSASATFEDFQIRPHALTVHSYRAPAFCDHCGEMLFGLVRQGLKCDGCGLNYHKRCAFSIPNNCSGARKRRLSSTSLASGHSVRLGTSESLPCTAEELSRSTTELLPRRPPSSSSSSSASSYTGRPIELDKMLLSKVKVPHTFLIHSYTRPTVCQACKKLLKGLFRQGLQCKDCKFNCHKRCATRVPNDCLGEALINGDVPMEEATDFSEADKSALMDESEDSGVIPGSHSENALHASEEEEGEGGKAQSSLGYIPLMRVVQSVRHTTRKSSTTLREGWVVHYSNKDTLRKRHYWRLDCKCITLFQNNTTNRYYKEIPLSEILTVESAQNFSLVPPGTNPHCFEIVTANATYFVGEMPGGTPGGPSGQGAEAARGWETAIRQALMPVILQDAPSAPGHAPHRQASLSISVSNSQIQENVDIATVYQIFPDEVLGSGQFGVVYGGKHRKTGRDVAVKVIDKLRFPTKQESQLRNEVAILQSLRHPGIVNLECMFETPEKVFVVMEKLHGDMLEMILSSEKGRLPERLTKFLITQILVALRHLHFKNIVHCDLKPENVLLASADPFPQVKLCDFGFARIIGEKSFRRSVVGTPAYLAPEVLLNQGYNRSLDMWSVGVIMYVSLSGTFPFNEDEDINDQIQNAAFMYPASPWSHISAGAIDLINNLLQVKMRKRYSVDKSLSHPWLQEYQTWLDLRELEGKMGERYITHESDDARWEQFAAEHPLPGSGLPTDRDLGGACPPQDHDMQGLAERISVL
In the next data set the target is RPS6KA3 (Homo sapiens, UniProt P51812). Description: biochemical. Also noted: species or system HEK293/K-562/placenta mixed human extract; Kinobeads chemoproteomic competition binding, quantified by TMT LC-MS/MS, dose response up to 20 uM.
A further data set has as its target TNK1 (Homo sapiens, UniProt Q13470). Description: biochemical. Also noted: species or system HEK293/K-562/placenta mixed human extract; Kinobeads chemoproteomic competition binding, quantified by TMT LC-MS/MS, dose response up to 20 uM.

Chain of BRAF (P15056 whole entry): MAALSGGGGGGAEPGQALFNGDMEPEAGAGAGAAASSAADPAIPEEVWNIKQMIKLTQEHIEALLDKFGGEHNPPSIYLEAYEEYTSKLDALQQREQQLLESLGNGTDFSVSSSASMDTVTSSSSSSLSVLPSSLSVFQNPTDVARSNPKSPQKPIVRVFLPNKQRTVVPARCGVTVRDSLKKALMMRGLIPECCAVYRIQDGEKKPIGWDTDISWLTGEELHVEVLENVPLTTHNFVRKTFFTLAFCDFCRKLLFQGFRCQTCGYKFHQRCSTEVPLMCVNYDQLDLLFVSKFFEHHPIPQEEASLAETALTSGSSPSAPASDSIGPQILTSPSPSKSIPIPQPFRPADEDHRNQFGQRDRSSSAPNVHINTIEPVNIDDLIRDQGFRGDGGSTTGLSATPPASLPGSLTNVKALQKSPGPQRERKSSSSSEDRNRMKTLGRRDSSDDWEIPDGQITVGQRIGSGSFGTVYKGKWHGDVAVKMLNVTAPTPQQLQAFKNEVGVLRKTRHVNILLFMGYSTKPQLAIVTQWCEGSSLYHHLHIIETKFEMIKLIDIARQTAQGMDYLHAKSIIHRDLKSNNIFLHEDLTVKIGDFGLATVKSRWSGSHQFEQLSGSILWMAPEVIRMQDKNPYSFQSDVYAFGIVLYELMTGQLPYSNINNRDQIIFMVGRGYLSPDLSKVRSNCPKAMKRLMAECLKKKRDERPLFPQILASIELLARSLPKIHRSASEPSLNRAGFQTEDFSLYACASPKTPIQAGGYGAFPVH
Chain of MASTL (Q96GX5 whole entry): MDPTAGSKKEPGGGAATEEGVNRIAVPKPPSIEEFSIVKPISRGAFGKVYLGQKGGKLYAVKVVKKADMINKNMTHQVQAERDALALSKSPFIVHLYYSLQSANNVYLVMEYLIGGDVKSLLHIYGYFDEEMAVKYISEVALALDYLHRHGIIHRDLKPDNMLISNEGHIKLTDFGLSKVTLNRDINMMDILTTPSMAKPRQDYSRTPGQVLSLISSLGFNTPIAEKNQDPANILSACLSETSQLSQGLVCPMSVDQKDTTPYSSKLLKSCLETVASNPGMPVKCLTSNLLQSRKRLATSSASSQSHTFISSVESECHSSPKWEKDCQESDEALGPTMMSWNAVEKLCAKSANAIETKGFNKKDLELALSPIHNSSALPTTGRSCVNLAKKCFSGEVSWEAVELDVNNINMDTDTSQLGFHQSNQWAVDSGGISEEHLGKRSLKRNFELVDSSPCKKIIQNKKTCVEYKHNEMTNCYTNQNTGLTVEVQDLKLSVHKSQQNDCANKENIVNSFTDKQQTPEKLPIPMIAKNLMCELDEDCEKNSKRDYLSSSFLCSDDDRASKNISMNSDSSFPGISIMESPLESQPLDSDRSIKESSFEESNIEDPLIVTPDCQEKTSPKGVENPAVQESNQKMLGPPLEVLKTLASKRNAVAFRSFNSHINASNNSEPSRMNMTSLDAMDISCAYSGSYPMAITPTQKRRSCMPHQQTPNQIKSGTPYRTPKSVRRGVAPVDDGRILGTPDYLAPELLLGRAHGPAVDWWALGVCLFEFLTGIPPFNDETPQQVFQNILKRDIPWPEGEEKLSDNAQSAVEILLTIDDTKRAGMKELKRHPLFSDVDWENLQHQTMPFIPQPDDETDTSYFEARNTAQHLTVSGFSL
Chain of CSNK2B (P67870 whole entry): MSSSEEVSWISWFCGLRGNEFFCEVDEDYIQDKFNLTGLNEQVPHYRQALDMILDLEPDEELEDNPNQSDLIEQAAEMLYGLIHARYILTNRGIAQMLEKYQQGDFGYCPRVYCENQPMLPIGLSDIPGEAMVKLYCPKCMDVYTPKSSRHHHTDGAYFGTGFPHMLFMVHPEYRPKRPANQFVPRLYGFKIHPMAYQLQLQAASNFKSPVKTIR

As for `COc1nc(N[C@H]2CC[C@H](NS(=O)(=O)CC(C)C)CC2)nc2[nH]nc(N3CCOC[C@H]3C)c12` [compound 39, N-(trans-4-((4-Methoxy-3-((R)-3-methylmorpholino)-1H-pyrazolo[3,4-d]pyrimidin-6-yl)amino)cyclohexyl)-2-methylpropane-1-sulfonamide], the figures for the IC50 at hERG and on CYP3A4 were over 30 µM and over 39.8 µM, respectively.
Consider `COc1ccccc1-c1n[nH]c2nc(N[C@H]3CC[C@H](NS(=O)(=O)CCC(F)(F)F)CC3)nc(OC)c12` [compound 31, 3,3,3-Trifluoro-N-(trans-4-((4-methoxy-3-(2-methoxyphenyl)-1H-pyrazolo[3,4-d]pyrimidin-6-yl)amino)cyclohexyl)propane-1-sulfonamide], for which the IC50 on AAK1, at BRAF, on CAMK2B, at CDC42BPG, at CSK and at CSNK1A1 was at least 20 µM throughout. The IC50 at CSNK2B, at IRAK1, on MAST3, on MASTL, at MYLK3 and on NEK7 was at least 20 µM throughout. The IC50 at PDIK1L, on PKN2, on PRKAA1, on PRKCZ, at PRKD2 and on RPS6KA3 was at least 20 µM each time. Moreover, the IC50 on TNK1 was at least 20 µM.
